From publication PMC12888861, “Antibacterial activity of enmetazobactam against Acinetobacter spp.: a molecular dissection of mechanism of action and resistance determinants” (Antimicrobial Agents and Chemotherapy, 2025)
In brackets after ≈: the same amount, converted by molar mass. Where two headings read alike, the source gives them in different places.

Assays:
[1] = test system: A. non-baumannii isolates (n = 87); test: MIC, broth microdilution (EUCAST), A. non-baumannii isolates; type: cell-based, Acinetobacter spp. (non-baumannii); settings: for MIC: read-out: MIC
How it was run: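 Clinical isolates from the Spanish National Acinetobacter spp. 2020 collection were tested by EUCAST v.15 broth microdilution, including enmetazobactam on its own. Duplicate runs used A. baumannii ATCC 19606 as reference.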

[2] = test system: A. baumannii ATCC 19606 cells; test: Cell morphology assay, bright-field microscopy; type: cell-based, Acinetobacter baumannii; settings: A. baumannii ATCC 19606, overnight exposure at 1× MIC
Procedure: In order to confirm the involvement of PBPs as targets of enmetazobactam, cell morphology assays involving exposure to enmetazobactam and sulbactam were performed following the methodology described in Supplementary materials and methods.
To confirm the involvement of PBPs as targets of enmetazobactam, the cellular morphology of A. baumannii ATCC 19606 reference strain was analyzed after exposure to the compound at different concentrations. Bright-field microscopy was used to monitor the cell morphology. […] For microscopic visualization, aliquots of each sample were obtained, stained with crystal violet solution and observed using an Olympus BX61 microscope (Olympus).
Changes in cell morphology were determined on the basis of alterations in septal integrity, abnormal elongation, spheroplast formation and filamentation, patterns previously associated with the selective inhibition of PBP1, PBP2 and PBP3 in Gram-negative bacilli. Specifically, PBP1 inhibition has been linked to cell lysis, PBP2 inhibition has been linked to spherification, and PBP3 inhibition to defective cell division and filament formation (1, 2). The results were qualitatively compared across different treatments to infer the potential selectivity of enmetazobactam for specific PBPs.

[3] = Acinetobacter, A. non-baumannii isolates (n=87), ETZ fixed 8 mg/L in combinations

In the case of `CC1(C)[C@H](C(=O)O)N2C(=O)C[C@H]2S1(=O)=O` [sulbactam], the MIC ([1]; Acinetobacter pittii, MBC set, isolate NO-Ab89, A. pittii) is reported as 0.5 µg/mL (≈ 2.14 µM), the MIC ([1]; Acinetobacter pittii, isolate NO-Ab59, Acinetobacter pittii, in combinations ETZ fixed at 8 mg/L) is reported as 1 µg/mL and the MIC ([1]; Acinetobacter pittii, isolate NO-Ab66, Acinetobacter pittii, in combinations ETZ fixed at 8 mg/L) is reported as 1 µg/mL. For the same molecule, the MIC ([1]; Acinetobacter pittii, isolate NO-Ab73, Acinetobacter pittii, in combinations ETZ fixed at 8 mg/L) was 0.5 µg/mL, the MIC ([1]; Acinetobacter pittii, isolate NO-Ab75, Acinetobacter pittii, in combinations ETZ fixed at 8 mg/L) was 1 µg/mL and the MIC ([1]; Acinetobacter pittii, isolate NO-Ab78, Acinetobacter pittii, in combinations ETZ fixed at 8 mg/L) was 0.5 µg/mL. For the same molecule, the MIC ([1]; Acinetobacter pittii, isolate NO-Ab82, Acinetobacter pittii, in combinations ETZ fixed at 8 mg/L) was 0.5 µg/mL, the MIC ([1]; Acinetobacter pittii, isolate NO-Ab89, Acinetobacter pittii, in combinations ETZ fixed at 8 mg/L) was 0.5 µg/mL and the MIC ([1]; Acinetobacter pittii, isolate NO-Ab90, Acinetobacter pittii, in combinations ETZ fixed at 8 mg/L) was 0.5 µg/mL. It also gave an MIC ([1]; Acinetobacter pittii, isolate NO-Ab97, Acinetobacter pittii, in combinations ETZ fixed at 8 mg/L) of 1 µg/mL, an MIC ([1]; Acinetobacter pittii, isolate NO-Ab105, Acinetobacter pittii, in combinations ETZ fixed at 8 mg/L) of 1 µg/mL and an MIC ([1]; Acinetobacter pittii, isolate NO-Ab106, Acinetobacter pittii, in combinations ETZ fixed at 8 mg/L) of 0.5 µg/mL. The MIC ([1]; Acinetobacter pittii, isolate NO-Ab107, Acinetobacter pittii, in combinations ETZ fixed at 8 mg/L) was 0.5 µg/mL, the MIC ([1]; Acinetobacter pittii, isolate NO-Ab111, Acinetobacter pittii, in combinations ETZ fixed at 8 mg/L) was 1 µg/mL and the MIC ([1]; Acinetobacter pittii, isolate NO-Ab113, Acinetobacter pittii, in combinations ETZ fixed at 8 mg/L) was 1 µg/mL. It also gave an MIC ([1]; Acinetobacter pittii, isolate NO-Ab118, Acinetobacter pittii, in combinations ETZ fixed at 8 mg/L) of 2 µg/mL, an MIC ([1]; Acinetobacter pittii, isolate NO-Ab135, Acinetobacter pittii, in combinations ETZ fixed at 8 mg/L) of 0.5 µg/mL and an MIC ([1]; Acinetobacter pittii, isolate NO-Ab145, Acinetobacter pittii, in combinations ETZ fixed at 8 mg/L) of 1 µg/mL. For the same molecule, the MIC ([1]; Acinetobacter pittii, isolate NO-Ab151, Acinetobacter pittii, in combinations ETZ fixed at 8 mg/L) was 2 µg/mL, the MIC ([1]; Acinetobacter pittii, isolate NO-Ab154, Acinetobacter pittii, in combinations ETZ fixed at 8 mg/L) was 0.5 µg/mL and the MIC ([1]; Acinetobacter pittii, isolate NO-Ab157, Acinetobacter pittii, in combinations ETZ fixed at 8 mg/L) was 1 µg/mL. The MIC ([1]; Acinetobacter pittii, isolate NO-Ab162, Acinetobacter pittii, in combinations ETZ fixed at 8 mg/L) was 0.5 µg/mL, the MIC ([1]; Acinetobacter pittii, isolate NO-Ab164, Acinetobacter pittii, in combinations ETZ fixed at 8 mg/L) was 0.5 µg/mL and the MIC ([1]; Acinetobacter pittii, isolate NO-Ab178, Acinetobacter pittii, in combinations ETZ fixed at 8 mg/L) was 0.5 µg/mL. For the same molecule, the MIC ([1]; Acinetobacter pittii, isolate NO-Ab197, Acinetobacter pittii, in combinations ETZ fixed at 8 mg/L) was 0.5 µg/mL, the MIC ([1]; Acinetobacter proteolyticus, isolate NO-Ab99, Acinetobacter proteolyticus, in combinations ETZ fixed at 8 mg/L) was 1 µg/mL and the MIC ([1]; Acinetobacter proteolyticus, isolate NO-Ab102, Acinetobacter proteolyticus, in combinations ETZ fixed at 8 mg/L) was 1 µg/mL. The MIC ([1]; Acinetobacter proteolyticus, isolate NO-Ab210, Acinetobacter proteolyticus, in combinations ETZ fixed at 8 mg/L) was 0.25 µg/mL, the MIC ([1]; Acinetobacter radioresistens, isolate NO-Ab175, Acinetobacter radioresistens, in combinations ETZ fixed at 8 mg/L) was 1 µg/mL and the MIC ([1]; Acinetobacter radioresistens, isolate NO-Ab215, Acinetobacter radioresistens, in combinations ETZ fixed at 8 mg/L) was 0.25 µg/mL. The MIC ([1]; Acinetobacter ursingii, isolate NO-Ab3, Acinetobacter ursingii, in combinations ETZ fixed at 8 mg/L) was 0.25 µg/mL, the MIC ([1]; Acinetobacter ursingii, isolate NO-Ab64, Acinetobacter ursingii, in combinations ETZ fixed at 8 mg/L) was 1 µg/mL and the MIC ([1]; Acinetobacter ursingii, isolate NO-Ab87, Acinetobacter ursingii, in combinations ETZ fixed at 8 mg/L) was 0.12 µg/mL. It also gave an MIC ([1]; Acinetobacter ursingii, isolate NO-Ab103, Acinetobacter ursingii, in combinations ETZ fixed at 8 mg/L) of 0.5 µg/mL, an MIC ([1]; Acinetobacter ursingii, isolate NO-Ab119, Acinetobacter ursingii, in combinations ETZ fixed at 8 mg/L) of 0.5 µg/mL and an MIC ([1]; Acinetobacter ursingii, isolate NO-Ab120, Acinetobacter ursingii, in combinations ETZ fixed at 8 mg/L) of 0.5 µg/mL. For the same molecule, the MIC ([1]; Acinetobacter ursingii, isolate NO-Ab123, Acinetobacter ursingii, in combinations ETZ fixed at 8 mg/L) was 2 µg/mL, the MIC ([1]; Acinetobacter ursingii, isolate NO-Ab126, Acinetobacter ursingii, in combinations ETZ fixed at 8 mg/L) was 1 µg/mL and the MIC ([1]; Acinetobacter ursingii, isolate NO-Ab147, Acinetobacter ursingii, in combinations ETZ fixed at 8 mg/L) was 2 µg/mL. For the same molecule, the MIC ([1]; Acinetobacter ursingii, isolate NO-Ab155, Acinetobacter ursingii, in combinations ETZ fixed at 8 mg/L) was 1 µg/mL, the MIC ([1]; Acinetobacter ursingii, isolate NO-Ab165, Acinetobacter ursingii, in combinations ETZ fixed at 8 mg/L) was 1 µg/mL and the MIC ([1]; Acinetobacter ursingii, isolate NO-Ab166, Acinetobacter ursingii, in combinations ETZ fixed at 8 mg/L) was 0.25 µg/mL. The MIC ([1]; Acinetobacter ursingii, isolate NO-Ab214, Acinetobacter ursingii, in combinations ETZ fixed at 8 mg/L) was at most 0.06 µg/mL, the MIC ([1]; Acinetobacter ursingii, isolate NO-Ab221, Acinetobacter ursingii, in combinations ETZ fixed at 8 mg/L) was 0.5 µg/mL and the MIC ([1]; Acinetobacter ursingii, isolate NO-Ab222, Acinetobacter ursingii, in combinations ETZ fixed at 8 mg/L) was 0.5 µg/mL. The MIC ([1]; Acinetobacter, MBC set, isolate NO-Ab84, A. bereziniae) was 1 µg/mL (≈ 4.29 µM), the MIC ([1]; Acinetobacter, MBC set, isolate NO-Ab88, A. dijkshoorniae) was 0.5 µg/mL (≈ 2.14 µM) and the MIC ([1]; Acinetobacter, isolate NO-Ab146, Acinetobacter iwoffii, in combinations ETZ fixed at 8 mg/L) was 2 µg/mL. The MIC ([1]; Acinetobacter, isolate NO-Ab159, Acinetobacter iwoffii, in combinations ETZ fixed at 8 mg/L) was 0.5 µg/mL, the MIC50 [1, 3] was 1 µg/mL and the MIC90 [1, 3] was 2 µg/mL. For the same molecule, the cell morphology [2] was “long filaments”.
